Laboratory results: paper PMC12662241, “New xanthone and chemical constituents from the aerial parts of Mallotus glomerulatus and their cytotoxicity in MCF-7 and MDA-MB-231 breast cancer cells” (ADMET & DMPK, 2025)
Like-named read-outs stand apart in the source and are kept apart here. Values belong to the molecule of their own block, whether it stands above or below them.

Tests used:
[1] = test system: MCF-7 cells; assay: Primary screening, MTT cell viability, MCF-7; conditions: for viability at 50 µM: Homo sapiens, MCF7, 72 h, read-out: MCF-7 cell viability, %, 50 μM, 72 h, MTT; for inhibition of viability of MCF-7 cells: primary single-concentration screening
Method: (§1) MCF-7 cells were cultured in Dulbecco's Modified Eagle Medium/Nutrient Mixture F-12 (DMEM/F-12) (Gibco, New York, USA), which was supplemented with 10 % fetal bovine serum (FBS) (Gibco, New York, USA) and 1 % Penicillin-Streptomycin (P/S) (Gibco, New York, USA). MDA-MB-231 cells were cultured in DMEM high glucose (Gibco, New York, USA), supplemented with 10 % FBS and 1 % P/S.
(§2) MCF-7 cells were cultured in DMEM/F-12, while MDA-MB-231 cells were maintained in high-glucose DMEM. Both media were supplemented with 10 % foetal bovine serum (FBS) and 1 % penicillin/streptomycin (P/S). Cells were incubated for 24 h at 37 °C in a humidified atmosphere with 5 % CO2. […] Doxorubicin was used as a positive control. Following compound treatment, cells were incubated for 72 h under standard culture conditions. After treatment, the medium was replaced with serum-free medium containing 0.5 mg mL^-1 of 3-(4,5-dimethylthiazol-2-yl)-2,5-diphenyltetrazolium bromide (MTT), and cells were incubated for an additional 3 h. The MTT solution was then removed, and dimethyl sulfoxide (DMSO) was added to solubilize the formazan crystals. Absorbance was measured at 595 nm using a Microplate Spectrophotometer MR-850 BioPlate Reader (Biometrics Technologies, Wilmington, DE, USA). Compounds that reduced cell viability to ≤20 % compared to untreated controls were identified as hits for subsequent dose-response analysis. […] Treated cells were incubated for 72 h, followed by an MTT assay as described above. The absorbance at 595 nm was recorded, and IC50 values were determined using GraphPad Prism 9 (GraphPad Software, San Diego, CA, USA).

[2] = test system: MDA-MB-231 cells; assay: Primary screening, MTT cell viability, MDA-MB-231; conditions: for viability at 50 µM: Homo sapiens, MDA-MB-231, 72 h, read-out: MDA-MB-231 cell viability, %, 50 μM, 72 h, MTT
Method: as §1, §2

[3] = test system: MCF-7 cells; assay: Secondary screening (dose-response), MTT assay, MCF-7; format: cell-based, human; conditions: read-out: IC50 MCF-7
Method: as §1, §2

[4] = test system: MDA-MB-231 cells; assay: Secondary screening (dose-response), MTT assay, MDA-MB-231; format: cell-based, human; conditions: read-out: IC50 MDA-MB-231
Method: as §1, §2

[5] = test system: HepG2 cells; conditions: for SI (CC50/IC50) HepG2: MDA-MB-231: ratio of CC50 in HepG2 to IC50 in MDA-MB-231; for SI (CC50/IC50) HepG2: MCF-7: ratio of CC50 in HepG2 to IC50 in MCF-7
Method: (§3) The human liver cells (HepG2 cells) were seeded into a 96-well plate at a cell density of 10^4 cells/well and were incubated with DMEM/F-12 with 10 % FBS and 1 % P/S for 24 hours in an incubator (37 °C and 5 % CO2). […] Then, they were additionally incubated for 72 hours. After 72 hours of incubation, the culture media containing the compounds were removed, and serum-free media containing MTT was added instead, with an additional 3 hours of incubation at 37 °C and 5 % CO2. After 3 hours of incubation, the MTT-containing media was removed and DMSO was added to the assay plates, resulting in different shades of purple colour measured by Microplate Spectrophotometer MR-850 BioPlate Reader. The calculation of CC50 was analysed by using GraphPad Prism 9.

[6] = in vitro; conditions: human, HepG2 cells
Method: as §3

[7] = test system: MCF-7 cells; conditions: 50 µM
Method: as §1, §2

[8] = test system: MDA-MB-231 cells; conditions: 50 µM
Method: as §1, §2

Molecule: CC(=O)c1ccc(O)cc1 [Compound 11, 4-hydroxyacetophenone]
- viability at 50 µM ([1]; mean ± SEM): 85.2 ± 4.2%
- viability at 50 µM ([2]; mean ± SEM): 50.2 ± 2.73%

Molecule: COc1cc(-c2cc(=O)c3c(O)c(OC)c(OC)cc3o2)cc(OC)c1OC [Compound 8, 5-hydroxy-6,7,3',4',5'-pentamethoxyflavone]
- viability at 50 µM ([1]; mean ± SEM): 63.1 ± 1.83%
- viability at 50 µM ([2]; mean ± SEM): 44.7 ± 1.93%

Molecule: COc1cc2c(O[C@@H]3OC[C@@H](OC)[C@H](OC)[C@H]3O)c3c(c(-c4ccc5c(c4)OCO5)c2cc1OC)C(=O)OC3 [Compound 10, cleistanthin A]
- IC50 ([3]; Homo sapiens, MCF7, 72 h): 540 nM
- IC50 ([4]; Homo sapiens, MDA-MB-231, 72 h): 20 nM
- SI (CC50/IC50) HepG2: MDA-MB-231 [5]: 268.50
- SI (CC50/IC50) HepG2: MDA-MB-231 ([5]; listed as cleistanthin A): > 100
- CC50 at 72 h [6]: 5370 nM
- viability at 50 µM ([1]; mean ± SEM): 1.72 ± 0.23%
- inhibition of viability of MCF-7 cells ([1]; 50 μM, 72 h): more than 80%
- viability at 50 µM ([2]; mean ± SEM): 8.85 ± 0.73%
- inhibition of viability of MDA-MB-231 cells ([2]; primary single-concentration screening, 50 μM, 72 h): more than 80%

Molecule: CC1(C)C(=O)C=C[C@]2(C)[C@@H]1CC[C@@]13C[C@@H](CC[C@H]12)C(O)(CO)C3 (stereo partly drawn) [Compound 4, anomaluone]
- viability at 50 µM ([1]; mean ± SEM): 72.7 ± 4.68%
- viability at 50 µM ([2]; mean ± SEM): 53.8 ± 1.88%

Molecule: COc1cc(O)c2c(c1)O[C@H](c1ccccc1)CC2=O [Compound 7, pinostrobin]
- viability at 50 µM ([1]; mean ± SEM): 88.5 ± 4.12%
- viability at 50 µM ([2]; mean ± SEM): 61.6 ± 3.69%

Molecule: (3,4,5)-trihydroxy-6-methoxy-2,7-bis(3-methylbut-2-en-1-yl)-9H-xanthen-9-one [Compound 1]
- IC50 ([3]; 72 h, MTT, mean ± SD): 28300 nM
- IC50 ([4]; 72 h, MTT, mean ± SD): 34200 nM
- CC50 ([5]; read-out: CC50 HepG2, 72 h, MTT): 32800 nM
- MCF-7 cell viability, % ([1]; 50 μM, 72 h, MTT, mean ± SEM): 1.60 ± 0.10%
- inhibition of viability of MCF-7 cells ([1]; 50 μM, 72 h): more than 80%
- MDA-MB-231 cell viability, % ([2]; 50 μM, 72 h, MTT, mean ± SEM): 59.00 ± 3.33%

Molecule: 3,6-phenanthrenedione [Compound 5]
- MCF-7 cell viability, % [7]: 75.58 ± 4.26%
- MDA-MB-231 cell viability, % [8]: 68.01 ± 3.88%

Molecule: C=C[C@@]1(C)C[C@H]2C[C@H](O)[C@]3(O)[C@@H](CCCC3(C)C)[C@]2(C)CC1=O [Compound 2, glomerulatusin]
- viability at 50 µM ([1]; mean ± SEM): 77.7 ± 4.87%
- viability at 50 µM ([2]; mean ± SEM): 56.3 ± 2.17%

Molecule: O=c1cc(-c2ccccc2)oc2cc(O)cc(O)c12 [Compound 9, chrysin]
- viability at 50 µM ([1]; mean ± SEM): 76.7 ± 3.4%
- viability at 50 µM ([2]; mean ± SEM): 64.5 ± 1.19%

Molecule: C[C@H]1C(=O)CC[C@@H]2[C@]1(C)CC[C@H]1[C@@]2(C)CC[C@@]2(C)[C@@H]3CC(C)(C)CC[C@]3(C)CC[C@]12C [Compound 3, friedelin]
- viability at 50 µM ([1]; mean ± SEM): 79.2 ± 4.29%
- viability at 50 µM ([2]; mean ± SEM): 68.1 ± 2.96%

Molecule: O=C1C[C@@H](c2ccccc2)Oc2cc(O)cc(O)c21 [Compound 6, pinocembrin]
- viability at 50 µM ([1]; mean ± SEM): 95.6 ± 2.96%
- viability at 50 µM ([2]; mean ± SEM): 74.4 ± 2.32%

- IC50 ([3]; Homo sapiens, MCF7, 72 h, MTT, mean ± SD): 660 nM
- IC50 ([4]; Homo sapiens, MDA-MB-231, 72 h, MTT, mean ± SD): 980 nM
Molecule: COc1cccc2c1C(=O)c1c(O)c3c(c(O)c1C2=O)C[C@@](O)(C(=O)CO)C[C@@H]3O[C@H]1C[C@H](N)[C@H](O)[C@H](C)O1 [Doxorubicin, reference compound]
- SI (CC50/IC50) HepG2: MCF-7 ([5]; listed as DoxorubICin): 0.83
- SI (CC50/IC50) HepG2: MCF-7 ([5]; listed as doxorubicin): below 1
- SI (CC50/IC50) HepG2: MDA-MB-231 ([5]; listed as DoxorubICin): 0.56
- SI (CC50/IC50) HepG2: MDA-MB-231 ([5]; listed as doxorubicin): below 1
- CC50 at 72 h [6]: 550 nM
- viability at 50 µM ([1]; mean ± SEM): 4.02 ± 0.24%
- viability at 50 µM ([2]; mean ± SEM): 4.72 ± 1.07%
